# Reference: patent US20250296953A1, “3,4-THIAZOLO-STEROIDS AND METHODS OF MAKING AND USING THE SAME” (Arkansas State University - Jonesboro, priority 2018, published 2025)
# Read-outs that look alike come from different tables or passages of the source.
# How the values were obtained:
# [1] = tested on: NCI-H522 (NSCLC); assay: NCI 60 one dose screen; format: cell-based, human; conditions: Non-small Cell Lung Cancer
# [2] = tested on: glioblastoma (SF-295); assay: NCI 60 five dose screen
# [3] = tested on: RPMI-8226; assay: NCI 60 five dose screen; conditions: Homo sapiens
# [4] = tested on: 60 different human tumor cell lines; assay: cells
smiles,measurement,setting,value
"C[C@]12CCc3sc(Nc4ccc(F)cc4F)nc3C1=CC[C@@H]1[C@@H]2CC[C@]2(C)C(=O)CC[C@@H]12 [IIa.10, (1S,2R,13R,14S,18S)-7-(2,4-difluoroanilino)-2,18-dimethyl-6-thia-8-azapentacyclo[11.7.0.02,10.05,9.014,18]icosa-5(9),7,10-trien-17-one]",Growth Percent,[1],42.56%
same,CC50,"[2]; Homo sapiens, SF-295, read-out: LC50",> 100 µM
same,TGI,"[2]; SF-295 (CNS Cancer), five dose",>1.00E−4
same,GI50,[3]; RPMI-8226,1.88 µM
same,CC50,"[3]; RPMI-8226, read-out: LC50",> 100 µM
same,CC50,"[4]; 60 cell, read-out: LC50",> 100 µM
same,CC50,"[4]; A498, read-out: LC50",> 100 µM
same,CC50,"[4]; A549, read-out: LC50",> 100 µM
same,GI50,[4]; ACHN,1.81 µM
same,CC50,"[4]; BT-549, read-out: LC50",> 100 µM
same,CC50,"[4]; CAKI-1, read-out: LC50",> 100 µM
same,GI50,[4]; CCRF-CEM,2.64 µM
same,CC50,"[4]; CCRF-CEM, read-out: LC50",> 100 µM
same,GI50,[4]; DU-145,1.98 µM
same,CC50,"[4]; EKVX, read-out: LC50",> 100 µM
same,GI50,[4]; HCT-15,1.7 µM
same,CC50,"[4]; HCT-15, read-out: LC50",> 100 µM
same,GI50,[4]; HCT-116,1.67 µM
same,CC50,"[4]; HL-60, read-out: LC50",> 100 µM
same,CC50,"[4]; HOP-62, read-out: LC50",> 100 µM
same,CC50,"[4]; HOP-92, read-out: LC50",> 100 µM
same,GI50,[4]; HT-29,2.24 µM
same,CC50,"[4]; HT-29, read-out: LC50",> 100 µM
same,CC50,"[4]; Hs-578T, read-out: LC50",> 100 µM
same,CC50,"[4]; IGROV-1, read-out: LC50",> 100 µM
same,GI50,[4]; K562,2.43 µM
same,CC50,"[4]; K562, read-out: LC50",> 100 µM
same,GI50,[4]; LOX IMVI,1.71 µM
same,CC50,"[4]; M14, read-out: LC50",> 100 µM
same,CC50,"[4]; MCF7, read-out: LC50",> 100 µM
same,CC50,"[4]; MDA-MB-231, read-out: LC50",> 100 µM
same,CC50,"[4]; MDA-MB-435, read-out: LC50",> 100 µM
same,GI50,[4]; MDA-MB-468,1.75 µM
same,GI50,[4]; MOLT-4,2.44 µM
same,CC50,"[4]; MOLT-4, read-out: LC50",> 100 µM
same,CC50,"[4]; Malme-3M, read-out: LC50",> 100 µM
same,CC50,"[4]; NCI-H23, read-out: LC50",> 100 µM
same,GI50,[4]; NCI-H226,1.83 µM
same,CC50,"[4]; NCI-H322M, read-out: LC50",> 100 µM
same,CC50,"[4]; NCI-H460, read-out: LC50",> 100 µM
same,GI50,[4]; NCI-H522,1.84 µM
same,CC50,"[4]; NCI/ADR-RES, read-out: LC50",> 100 µM
same,GI50,[4]; OVCAR-3,1.9 µM
same,CC50,"[4]; OVCAR-4, read-out: LC50",> 100 µM
same,CC50,"[4]; OVCAR-5, read-out: LC50",> 100 µM
same,GI50,[4]; OVCAR-8,2.96 µM
same,CC50,"[4]; OVCAR-8, read-out: LC50",> 100 µM
same,GI50,[4]; RXF 393,1.57 µM
same,CC50,"[4]; SF-268, read-out: LC50",> 100 µM
same,CC50,"[4]; SK-MEL-2, read-out: LC50",> 100 µM
same,GI50,[4]; SK-MEL-5,1.88 µM
same,CC50,"[4]; SK-OV-3, read-out: LC50",> 100 µM
same,CC50,"[4]; SN12C, read-out: LC50",> 100 µM
same,CC50,"[4]; SNB-19, read-out: LC50",> 100 µM
same,CC50,"[4]; SNB-75, read-out: LC50",> 100 µM
same,GI50,[4]; SW-620,2.4 µM
same,CC50,"[4]; SW-620, read-out: LC50",> 100 µM
same,GI50,[4]; T47D,2.25 µM
same,CC50,"[4]; T47D, read-out: LC50",> 100 µM
same,GI50,[4]; TK-10,2.8 µM
same,CC50,"[4]; TK-10, read-out: LC50",> 100 µM
same,CC50,"[4]; U-251, read-out: LC50",> 100 µM
same,CC50,"[4]; UACC-62, read-out: LC50",> 100 µM
same,CC50,"[4]; UACC-257, read-out: LC50",> 100 µM
